Values joined by “and” are separate entries in the source; they are usually repeats but may differ in a detail not shown here. Identical values can stand only once. Like-named read-outs stand apart in the source and are kept apart here.
Legend:
E. coli AG100 [1] = assay: Checkerboard synergy assay (MIC of antibiotics/EtBr with efflux inhibitor); format: cell-based, Escherichia coli; conditions: for MIC: Escherichia coli
Experimental: (§1) The assays were performed in triplicate and the MIC value was given as result of at least two concordant values.

[2] = system: E. coli AG100A (AcrAB pump-deficient); assay: MIC, broth microdilution; format: cell-based, Escherichia coli; conditions: Escherichia coli
E. coli AG100 [3] = assay: Membrane potential assay (BacLight, DiOC2(3)); conditions: 80 µM
E. coli AG100 [4] = assay: EtBr accumulation by real-time fluorometry; conditions: EtBr 1 µg/ml + inhibitor 80 µM
E. coli AG100tet [5] = assay: EtBr accumulation by real-time fluorometry; conditions: EtBr 2 µg/ml + inhibitor 80 µM
E. coli AG100tet [6] = assay: microbe, parasite or virus in culture; format: cell-based, Escherichia coli; conditions: Escherichia coli, AG100TET
Experimental: as §1

E. coli AG100A = conditions: EtBr […] + inhibitor 20 µM

## CN(C)CCCN1c2ccccc2Sc2ccc(Cl)cc21 [CPZ, chlorpromazine]
E. coli AG100 [1]; AG100, inhibitor 80 μM
  MIC of OFX in presence of the efflux inhibitor: 0.125 µg/mL
  MIC of OXA in presence of the efflux inhibitor: 512 µg/mL
E. coli AG100 [1]; AG100, AG100, inhibitor 160 μM, read-out: MIC of OXA in presence of the efflux inhibitor
  MIC: ≤ 1 µg/mL
E. coli AG100 [1]; AG100, read-out: MIC of EtBr in presence of the efflux inhibitor
  MIC: 25 µg/mL
E. coli AG100 [1]; AG100, read-out: MIC of EtBr in presence of the efflux inhibitor, AG100, inhibitor 40 μM
  MIC: 100 µg/mL
E. coli AG100 [1]; AG100, read-out: MIC of EtBr in presence of the efflux inhibitor, AG100, inhibitor 160 μM
  MIC: ≤ 0.39 µg/mL
E. coli AG100 [1]; AG100, read-out: MIC of OFX in presence of the efflux inhibitor
  MIC: 0.125 µg/mL
E. coli AG100 [1]; AG100, read-out: MIC of OFX in presence of the efflux inhibitor, AG100, inhibitor 160 μM
  MIC: 0.003 µg/mL
E. coli AG100 [1]; AG100, read-out: MIC of OXA in presence of the efflux inhibitor
  MIC: 512 µg/mL
E. coli AG100 [1]; AG100, read-out: MIC of TET in presence of the efflux inhibitor, AG100, inhibitor 40 μM
  MIC: 1 µg/mL
E. coli AG100 [1]; AG100, read-out: MIC of TET in presence of the efflux inhibitor, AG100, inhibitor 80 μM
  MIC: 0.5 µg/mL
E. coli AG100 [1]; AG100, read-out: MIC of TET in presence of the efflux inhibitor, AG100, inhibitor 160 μM
  MIC: ≤ 0.03 µg/mL
[2]
  MIC: 60 µg/mL and 169 µM
E. coli AG100 [3]
  membrane depolarization: similarly to that caused by PQQ4R
E. coli AG100 [4]; cycle 1
  EtBr fluorescence: 6.13
E. coli AG100 [4]; cycle 2
  EtBr fluorescence: 8.192
E. coli AG100 [4]; cycle 3
  EtBr fluorescence: 10.0781
E. coli AG100 [4]; cycle 4
  EtBr fluorescence: 12.1665
E. coli AG100 [4]; cycle 5
  EtBr fluorescence: 14.1022
E. coli AG100 [4]; cycle 6
  EtBr fluorescence: 16.1694
E. coli AG100 [4]; cycle 7
  EtBr fluorescence: 18.3713
E. coli AG100 [4]; cycle 8
  EtBr fluorescence: 20.6676
E. coli AG100 [4]; cycle 9
  EtBr fluorescence: 22.7314
E. coli AG100 [4]; cycle 10
  EtBr fluorescence: 24.8681
E. coli AG100 [4]; cycle 11
  EtBr fluorescence: 27.4474
E. coli AG100 [4]; cycle 12
  EtBr fluorescence: 29.5933
E. coli AG100 [4]; cycle 13
  EtBr fluorescence: 31.7973
E. coli AG100 [4]; cycle 14
  EtBr fluorescence: 34.5154
E. coli AG100 [4]; cycle 15
  EtBr fluorescence: 36.8928
E. coli AG100 [4]; cycle 16
  EtBr fluorescence: 39.2786
E. coli AG100 [4]; cycle 17
  EtBr fluorescence: 41.9426
E. coli AG100 [4]; cycle 18
  EtBr fluorescence: 44.0663
E. coli AG100 [4]; cycle 19
  EtBr fluorescence: 46.4485
E. coli AG100 [4]; cycle 20
  EtBr fluorescence: 49.5818
E. coli AG100 [4]; cycle 21
  EtBr fluorescence: 51.5786
E. coli AG100 [4]; cycle 22
  EtBr fluorescence: 54.5618
E. coli AG100 [4]; cycle 23
  EtBr fluorescence: 56.7461
E. coli AG100 [4]; cycle 24
  EtBr fluorescence: 59.3586
E. coli AG100 [4]; cycle 25
  EtBr fluorescence: 62.2682
E. coli AG100 [4]; cycle 26
  EtBr fluorescence: 64.3897
E. coli AG100 [4]; cycle 27
  EtBr fluorescence: 67.0371
E. coli AG100 [4]; cycle 28
  EtBr fluorescence: 69.6952
E. coli AG100 [4]; cycle 29
  EtBr fluorescence: 72.3896
E. coli AG100 [4]; cycle 30
  EtBr fluorescence: 75.3315
E. coli AG100tet [5]; cycle 1
  EtBr fluorescence: 9.834
E. coli AG100tet [5]; cycle 2
  EtBr fluorescence: 10.8502
E. coli AG100tet [5]; cycle 3
  EtBr fluorescence: 12.3051
E. coli AG100tet [5]; cycle 4
  EtBr fluorescence: 13.857
E. coli AG100tet [5]; cycle 5
  EtBr fluorescence: 15.5494
E. coli AG100tet [5]; cycle 6
  EtBr fluorescence: 17.3058
E. coli AG100tet [5]; cycle 7
  EtBr fluorescence: 19.3992
E. coli AG100tet [5]; cycle 8
  EtBr fluorescence: 20.8092
E. coli AG100tet [5]; cycle 9
  EtBr fluorescence: 23.1444
E. coli AG100tet [5]; cycle 10
  EtBr fluorescence: 25.4323
E. coli AG100tet [5]; cycle 11
  EtBr fluorescence: 27.4946
E. coli AG100tet [5]; cycle 12
  EtBr fluorescence: 29.7214
E. coli AG100tet [5]; cycle 13
  EtBr fluorescence: 31.9876
E. coli AG100tet [5]; cycle 14
  EtBr fluorescence: 34.2074
E. coli AG100tet [5]; cycle 15
  EtBr fluorescence: 36.9702
E. coli AG100tet [5]; cycle 16
  EtBr fluorescence: 39.6127
E. coli AG100tet [5]; cycle 17
  EtBr fluorescence: 42.5123
E. coli AG100tet [5]; cycle 18
  EtBr fluorescence: 45.4508
E. coli AG100tet [5]; cycle 19
  EtBr fluorescence: 48.5847
E. coli AG100tet [5]; cycle 20
  EtBr fluorescence: 50.7436
E. coli AG100tet [5]; cycle 21
  EtBr fluorescence: 54.1808
E. coli AG100tet [5]; cycle 22
  EtBr fluorescence: 57.0724
E. coli AG100tet [5]; cycle 23
  EtBr fluorescence: 59.5808
E. coli AG100tet [5]; cycle 24
  EtBr fluorescence: 63.2028
E. coli AG100tet [5]; cycle 25
  EtBr fluorescence: 66.0088
E. coli AG100tet [5]; cycle 26
  EtBr fluorescence: 69.6637
E. coli AG100tet [5]; cycle 27
  EtBr fluorescence: 72.1
E. coli AG100tet [5]; cycle 28
  EtBr fluorescence: 75.2829
E. coli AG100tet [5]; cycle 29
  EtBr fluorescence: 78.0686
E. coli AG100tet [5]; cycle 30
  EtBr fluorescence: 80.8335
E. coli AG100tet [6]; read-out: MIC of EtBr in presence of the efflux inhibitor, AG100tet, inhibitor 40 μM
  MIC: 256 µg/mL
E. coli AG100tet [6]; read-out: MIC of EtBr in presence of the efflux inhibitor, AG100tet, inhibitor 80 μM
  MIC: 128 µg/mL
E. coli AG100tet [6]; read-out: MIC of EtBr in presence of the efflux inhibitor, AG100tet, inhibitor 160 μM
  MIC: 128 µg/mL
E. coli AG100tet [6]; read-out: MIC of OFX in presence of the efflux inhibitor, AG100tet, inhibitor 40 μM
  MIC: 0.5 µg/mL
E. coli AG100tet [6]; read-out: MIC of OFX in presence of the efflux inhibitor, AG100tet, inhibitor 80 μM
  MIC: 0.5 µg/mL
E. coli AG100tet [6]; read-out: MIC of OFX in presence of the efflux inhibitor, AG100tet, inhibitor 160 μM
  MIC: 0.25 µg/mL
E. coli AG100tet [6]; read-out: MIC of OXA in presence of the efflux inhibitor, AG100tet, inhibitor 40 μM
  MIC: > 2050 µg/mL
E. coli AG100tet [6]; read-out: MIC of OXA in presence of the efflux inhibitor, AG100tet, inhibitor 80 μM
  MIC: 2050 µg/mL
E. coli AG100tet [6]; read-out: MIC of OXA in presence of the efflux inhibitor, AG100tet, inhibitor 160 μM
  MIC: 1020 µg/mL
E. coli AG100tet [6]; read-out: MIC of TET in presence of the efflux inhibitor, AG100tet, inhibitor 40 μM
  MIC: 32 µg/mL
E. coli AG100tet [6]; read-out: MIC of TET in presence of the efflux inhibitor, AG100tet, inhibitor 80 μM
  MIC: 32 µg/mL
E. coli AG100tet [6]; read-out: MIC of TET in presence of the efflux inhibitor, AG100tet, inhibitor 160 μM
  MIC: 16 µg/mL
E. coli AG100A; cycle 1
  EtBr fluorescence: 2.607
E. coli AG100A; cycle 2
  EtBr fluorescence: 3.106
E. coli AG100A; cycle 3
  EtBr fluorescence: 3.464
E. coli AG100A; cycle 4
  EtBr fluorescence: 4.013
E. coli AG100A; cycle 5
  EtBr fluorescence: 4.508
E. coli AG100A; cycle 6
  EtBr fluorescence: 5.005
E. coli AG100A; cycle 7
  EtBr fluorescence: 5.439
E. coli AG100A; cycle 8
  EtBr fluorescence: 6.027
E. coli AG100A; cycle 9
  EtBr fluorescence: 6.585
E. coli AG100A; cycle 10
  EtBr fluorescence: 7.2591
E. coli AG100A; cycle 11
  EtBr fluorescence: 7.711
E. coli AG100A; cycle 12
  EtBr fluorescence: 8.1901
E. coli AG100A; cycle 13
  EtBr fluorescence: 9.033
E. coli AG100A; cycle 14
  EtBr fluorescence: 9.4255
E. coli AG100A; cycle 15
  EtBr fluorescence: 10.1045
E. coli AG100A; cycle 16
  EtBr fluorescence: 10.9436
E. coli AG100A; cycle 17
  EtBr fluorescence: 11.4479
E. coli AG100A; cycle 18
  EtBr fluorescence: 12.2134
E. coli AG100A; cycle 19
  EtBr fluorescence: 12.6889
E. coli AG100A; cycle 20
  EtBr fluorescence: 13.2115
E. coli AG100A; cycle 21
  EtBr fluorescence: 13.9156
E. coli AG100A; cycle 22
  EtBr fluorescence: 14.6607
E. coli AG100A; cycle 23
  EtBr fluorescence: 15.4189
E. coli AG100A; cycle 24
  EtBr fluorescence: 16.1017
E. coli AG100A; cycle 25
  EtBr fluorescence: 16.6199
E. coli AG100A; cycle 26
  EtBr fluorescence: 17.3366
E. coli AG100A; cycle 27
  EtBr fluorescence: 18.2879
E. coli AG100A; cycle 28
  EtBr fluorescence: 18.7671
E. coli AG100A; cycle 29
  EtBr fluorescence: 19.416
E. coli AG100A; cycle 30
  EtBr fluorescence: 19.8456
